The values that follow come from patent US20130101628A1 (NORTHWESTERN UNIVERSITY, priority 2011, published 2013).

* marks the point of attachment. Palmitoyl = CCCCCCCCCCCCCCCC(=O)*

The target of one test is VEGF receptor 1 (human, UniProt P17948 27-1338). In words: cell-based or functional assay.
Test [1] concerns the target T1, VEGF receptor 2 (VEGFR2 or KDR) (Homo sapiens, UniProt P35968).
T1 construct: host or cells: HUVEC
In words: Sandwich ELISA of phosphorylated VEGFR2 in lysates of stimulated HUVEC. In kind it is cell-based. As to conditions: HUVEC, 1 μM, 2 minutes exposure; untreated control 1.000±0.109. As to the method:
Human umbilical vein endothelial cells (HUVECs) and complete endothelial cell growth media (EGM) were purchased (Genlantis, San Diego, Calif.), passaged two times following receipt, and cryo-preserved in media with 5% DMSO. Cells were thawed as needed and grown to confluence in a […] flasks (VWR Falcon) prior to plating for experiments.
Phosphorylation of both VEGFRI and VEGFR2 was assayed using commercially available assay kit (R&D Systems, Minneapolis, Minn.) following the recommended protocol. First, confluent HUVECs plated in 24 well plates were starved for 5 hours in serum-free defined media (SFDM, Genlantis) specifically designed to maintain cells in a growth factor-free setting for growth factor signaling and metabolic assays. Following starvation, the various treatments were dissolved in SFDM to a concentration of 1 μM. […] Cells were exposed to treatment for 2 minutes. To evaluate the time-course of phosphorylation the same protocol was followed and cells were exposed to VEGF-PA for 0, 1, 3, 5, 10, 15, 20, 25, 30, 40, 50, and 60 minutes.

In the next test the test system is ischemic hind-limb. In words: Murine hind-limb ischemia (HLI) model. As to conditions: for limb motor function score / tissue (limb) salvage score: single i.m. injection 25 μl of 2 mM; for limb motor function score: grade 1-5; for tissue (limb) salvage score: grade 1-6. In kind it is in vivo, mice. On the procedure: For the HLI procedure, eight week old male FVB wild-type mice (Charles River) were anesthetized by intraperitoneal injection of avertin (125 mg/kg). By means of a dissecting microscope, the femoral nerve was carefully separated from the vessel bundle. The right femoral artery was ligated and excised, including all superficial and deep branches. Critical limb ischemia was immediately verified by laser Doppler imaging (LDPI, MoorLDI-SIM, Moor Instruments, Ltd) to ensure the ratio (ischemic/non-ischemic limb) was ≦0.20. At postoperative day 3, outliers with low ischemia were triaged based on LDPI (ratio ischemic/nonischemic 0.30) as were outliers with extreme ischemia (necrotic demarcation of entire limb), determined by macroscopic evaluation. […] For follow-up, animals underwent reevaluations with LDPI at postoperative day 7, 14, and 28 before animals were sacrificed (CO, asphyxia) for tissue harvest at day 28. At each time-point, tissue perfusion was measured via LDPI, measuring blood flow in both the ischemic and non-ischemic limb and reporting results as the ratio of these two measurements. All LDPI measurements were taken on a 37° C. heating pad to control body temperature. In addition, motor function and tissue damage was semi-quantitatively assessed on post-operative day 7, 14, 21 and 28 by established scoring systems. Tissue damage in the ischemic limb (limb salvage score) was graded as full recovery (grade 6), minor necrosis or nail loss (grade 5), partial toe amputation (grade 4), total toe amputation (grade 3), partial/total foot amputation (grade 2) or partial/total limb amputation (grade 1) (modified from). Limb motor function was graded as unrestricted (grade 5), no active use of toe(s) or spreading (grade 4), restricted foot use (grade 3), no use of foot (grade 2) or no use of limb at all (grade 1) (modified from). Finally, walking capacity was measured via a Rota Rod apparatus. […] The mean of two assessments was used as for failure time for each animal. At day 28, muscle tissue from the ischemic limb was harvested, fixed in methanol, paraffin-embedded, and cross-sectioned (6-μm) for histological immunostaining. Briefly, sections were blocked with 10% donkey serum (30 min, RT). Primary antibodies were diluted in PBS containing BSA, and applied to tissue slices for 2 hrs at 37° C. Sections were stained for CD31, an endothelial-specific marker, using rat anti-CD31 antibodies (BD Pharmingen Inc) and smooth-muscle α-actin (αSMA), a vascular smooth muscle marker, using rabbit-anti-αSMA (Sigma-Aldrich Co.). For immunofluorescent detection, primary antibodies were resolved with Alexa-Fluor-conjugated secondary antibodies (Invitrogen Corporation, Carlsbad, Calif., USA dilution) and nuclei were counterstained with DAPI (Research Organics). Slides were imaged using fluorescent microscopy (Zeiss), and CD31+capillary forms and CD31+/sMA+]mature microvessels/arterioles were quantified in 3 separate high-power fields (20×) from 3 independent sections in each animal (9 images/animal). All error bars indicate the standard error of the mean. Differences between groups were determined using a one-way analysis of variance (ANOVA) with a Bonferroni multiple comparisons post-hoc test using GraphPad InStat v3.0b. […] VEGF-PA or control treatments were administered by an intramuscular injection three days following the induction of critical ischemia by ligation and excision of the right femoral artery and all superficial and deep branches, as described above. Animals were assessed serially throughout the study for motor function and limb salvage and Laser Doppler perfusion imaging (LDPI) was used to assess tissue perfusion. At the end of the study, exercise endurance was recorded on a Rota Rod treadmill and tissue was harvested for immunohistological staining of capillaries to observe effects on the microcirculation.

Test [2] relates to HUVECs. Description: HUVEC survival after serum-starvation (Annexin V-PE apoptosis). The format is cell-based, human. As to conditions: 1 μM in EBM, serum-starvation 24 hours; untreated 31.7%. As to the method:
To evaluate cell survival, endothelial basal media (EBM) without growth factors (Lonza) was used to induce a serum-starvation. Cells were plated in 12 well plates and grown to confluence with standard growth media. […] Cells were grown in these conditions for 24 hours. Survival was quantified using Annexin V: PE staining with 7-AAD vital staining (BD Biosciences) following provided assay instructions and analyzed on a DakoCytomation CyAn. Survival was assessed by determining the fraction of cells that were apoptotic (Annexin V-PE positive).

Test [3] has as its system HUVECs. In words: HUVEC migration scratch assay. In kind it is cell-based, human. As to conditions: 1 μM in EBM with 0.5% FBS, 18 hours; untreated 25.2%. On the procedure: To evaluate cell migration, endothelial basal media (EBM) without growth factors (Lonza) was supplemented with 0.5% FBS in order to prevent apoptosis but not promote significant migration or proliferation. Cells were grown to confluence in a 12 well plate and a 1 ml pipette tip was used to create a denuded scratch and the surface was washed twice with PBS to remove detached cells. The average scratch width at the initial time-point was […] Markings were placed on the underside of the plate to ensure the same region of the scratch was recorded in each image. […] The total pixel area of the scratch at the initial time-point was recorded using ImageJ analysis software, and the percent migration was determined from the reduction in denuded area at 18 hours.

Test [4] deals with HUVECs. In words: HUVEC proliferation (CyQUANT-NF cell number). In kind it is cell-based, human. As to conditions: 1 μM in EGM, 48 hours; untreated control 100.0%. On the procedure: In vitro studies were performed using HUVECs, a primary endothelial cell that is VEGF-responsive and frequently used as a model endothelial cell for angiogenesis studies in vitro [31].
To evaluate proliferation, HUVECs were plated at 5000 per well in a 96 well plate. […] Additionally, unsupplemented growth media was used as a control. After 48 hours, cell number was quantified using CyQUANT-NF (Invitrogen) and a standard fluorescent microplate reader. Cell number is expressed relative to the group treated with unsupplemented growth media.

In test [5] the test system is chicken chorioallantoic membrane (CAM). In words: Shell-less chicken chorioallantoic membrane (CAM) angiogenesis assay. The format is in vivo. As to conditions: 2 mM in PBS dried on coverslip, three days following treatment; saline 132%. From the text:
An established assay reflecting in vivo angiogenesis, the chicken chorioallantoic membrane (CAM) assay, was used to evaluate the angiogenic potential of the VEGF-PA of the present examples. This assay utilizes the extra-embryonic allantois, a tissue derived from the mesoderm that develops into a densely vascularized membrane. A common deviation from the traditional assay is to remove the shell and conduct the assay on a shell-less embryo, termed the shell-less CAM assay, as we have performed here. Fertilized white leghorn chicken eggs (Phil's Fresh Eggs, Forreston, Ill.) were received and cultured in a temperature controlled, humidified egg incubator. On embryonic day 3, eggs were cracked within a sterile tissue culture hood into round 100 mm petri dishes. Fertilized embryos were then transferred to a water-jacketed CO2 incubator, set to 37.5° C., 1% CO2 and 100% relative humidity. On embryonic day 10, the material treatment was dissolved at 2 mM in PBS, evaporated onto the surface of a 5 mm round glass cover slip, and placed facing down on top of the CAM (n=16/group). Digital images were captured through the eyepiece of a Nikon stereomicroscope and vessel density was quantified by the number of intersections of vessel structures with the edge of the cover slip and expressed relative to the initial time-point. Images were captured daily, beginning at embryonic day 10 and culminating on embryonic day 13, the standard range over which the CAM assay is performed. Additionally, images were assessed qualitatively for morphological differences in the CAM vasculature including spoking, branching and leakage.

Sequence of VEGF receptor 1 (P17948 27-1338): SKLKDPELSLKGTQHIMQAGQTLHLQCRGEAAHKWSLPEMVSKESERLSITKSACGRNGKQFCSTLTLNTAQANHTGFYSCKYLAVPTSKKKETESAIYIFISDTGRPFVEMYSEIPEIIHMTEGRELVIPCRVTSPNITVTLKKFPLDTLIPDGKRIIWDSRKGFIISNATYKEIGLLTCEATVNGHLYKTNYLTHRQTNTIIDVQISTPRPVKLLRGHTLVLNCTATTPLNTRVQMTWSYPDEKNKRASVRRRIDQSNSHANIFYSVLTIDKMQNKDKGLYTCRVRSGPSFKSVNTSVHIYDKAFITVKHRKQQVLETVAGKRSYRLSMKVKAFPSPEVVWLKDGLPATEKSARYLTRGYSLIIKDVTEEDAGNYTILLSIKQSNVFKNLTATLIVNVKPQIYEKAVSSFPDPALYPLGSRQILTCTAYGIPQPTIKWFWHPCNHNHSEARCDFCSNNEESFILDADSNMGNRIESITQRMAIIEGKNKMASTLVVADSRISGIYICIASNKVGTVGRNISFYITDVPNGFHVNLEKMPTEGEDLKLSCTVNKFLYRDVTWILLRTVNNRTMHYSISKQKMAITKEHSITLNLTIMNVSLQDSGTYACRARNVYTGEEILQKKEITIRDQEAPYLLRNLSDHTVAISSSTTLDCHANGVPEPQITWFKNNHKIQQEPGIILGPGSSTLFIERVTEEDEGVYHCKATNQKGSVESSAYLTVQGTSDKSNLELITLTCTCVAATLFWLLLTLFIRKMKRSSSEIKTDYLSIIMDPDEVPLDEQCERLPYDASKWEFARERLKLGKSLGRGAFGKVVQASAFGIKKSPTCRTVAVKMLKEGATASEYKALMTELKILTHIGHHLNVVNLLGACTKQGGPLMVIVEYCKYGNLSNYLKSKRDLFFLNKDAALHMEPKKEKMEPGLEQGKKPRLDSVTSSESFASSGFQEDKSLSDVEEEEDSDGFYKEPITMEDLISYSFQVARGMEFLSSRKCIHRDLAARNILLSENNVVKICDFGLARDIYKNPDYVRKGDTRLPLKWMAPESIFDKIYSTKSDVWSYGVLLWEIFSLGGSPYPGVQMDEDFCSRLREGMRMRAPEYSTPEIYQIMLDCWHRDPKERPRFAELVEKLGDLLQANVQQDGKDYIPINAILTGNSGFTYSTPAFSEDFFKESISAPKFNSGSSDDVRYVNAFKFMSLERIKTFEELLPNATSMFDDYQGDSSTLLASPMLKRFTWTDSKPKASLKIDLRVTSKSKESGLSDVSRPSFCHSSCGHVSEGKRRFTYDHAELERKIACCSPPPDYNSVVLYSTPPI
T1 sequence (P35968 20-1356): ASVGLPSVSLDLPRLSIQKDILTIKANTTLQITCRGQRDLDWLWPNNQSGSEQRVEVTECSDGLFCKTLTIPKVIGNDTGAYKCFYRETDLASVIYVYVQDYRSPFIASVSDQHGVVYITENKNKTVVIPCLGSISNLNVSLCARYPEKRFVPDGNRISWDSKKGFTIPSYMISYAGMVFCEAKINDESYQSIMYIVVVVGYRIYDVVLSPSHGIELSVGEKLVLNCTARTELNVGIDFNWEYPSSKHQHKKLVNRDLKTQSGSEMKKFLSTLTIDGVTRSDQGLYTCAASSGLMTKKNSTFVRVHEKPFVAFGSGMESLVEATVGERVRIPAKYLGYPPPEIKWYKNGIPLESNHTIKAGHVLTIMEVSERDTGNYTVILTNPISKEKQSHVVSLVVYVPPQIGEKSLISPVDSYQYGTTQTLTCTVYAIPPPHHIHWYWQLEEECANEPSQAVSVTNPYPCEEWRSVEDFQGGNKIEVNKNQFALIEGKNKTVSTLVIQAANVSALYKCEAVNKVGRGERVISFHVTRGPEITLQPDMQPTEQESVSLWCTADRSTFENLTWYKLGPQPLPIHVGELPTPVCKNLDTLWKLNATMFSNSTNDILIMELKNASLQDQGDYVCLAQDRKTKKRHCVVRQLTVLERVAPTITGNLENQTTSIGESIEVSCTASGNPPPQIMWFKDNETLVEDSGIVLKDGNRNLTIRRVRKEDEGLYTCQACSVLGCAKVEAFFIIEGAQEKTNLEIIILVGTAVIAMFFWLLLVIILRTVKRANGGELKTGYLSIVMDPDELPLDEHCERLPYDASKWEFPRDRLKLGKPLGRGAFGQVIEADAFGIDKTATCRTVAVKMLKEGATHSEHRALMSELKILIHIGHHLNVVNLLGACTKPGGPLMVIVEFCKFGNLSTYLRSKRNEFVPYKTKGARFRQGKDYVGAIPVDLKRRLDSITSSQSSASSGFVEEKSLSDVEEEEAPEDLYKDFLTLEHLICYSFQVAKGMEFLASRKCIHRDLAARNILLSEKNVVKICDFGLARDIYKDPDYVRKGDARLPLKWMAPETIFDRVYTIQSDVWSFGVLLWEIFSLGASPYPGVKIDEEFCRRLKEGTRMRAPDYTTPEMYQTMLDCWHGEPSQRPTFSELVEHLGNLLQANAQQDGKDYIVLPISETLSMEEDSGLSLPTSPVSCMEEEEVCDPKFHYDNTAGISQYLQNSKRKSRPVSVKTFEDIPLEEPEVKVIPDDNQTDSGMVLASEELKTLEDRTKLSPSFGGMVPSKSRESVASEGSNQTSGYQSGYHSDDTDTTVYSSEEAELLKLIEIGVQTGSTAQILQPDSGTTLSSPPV

“Native VEGF (from UniProt P15692 27-191) (ligand)”: the amount of phosphorylated VEGFR1 relative to untreated control (sandwich ELISA on HUVEC lysates, 100 ng/ml, 2 min) (fold of untreated control) in the test with VEGF receptor 1 worked out at 1.31.

Take Ac-KLTWQELYQLKYKGI-NH2 [VEGF peptide]: the “VEGFR2 phosphorylation level relative to untreated control” value in test [1] came out at 1.343±0.050. Besides, the “LDPI perfusion ratio (ischemic/non-ischemic limb)” value with ischemic hind-limb (14 days after induction of ischemia) worked out at 0.54±0.06. Besides, in the test with ischemic hind-limb (day 21), the “limb motor function score” value is given as 3.41±0.21 and the “tissue (limb) salvage score” value is listed as 3.45±0.25. In the test with ischemic hind-limb (day 28), the “LDPI perfusion ratio (ischemic/non-ischemic limb)” value turned out to be 0.52±0.06, the “limb motor function score” value is 3.50±0.17 and the “tissue (limb) salvage score” value worked out at 3.45±0.25. For the same molecule, in the test on ischemic hind-limb (day 28, saline 90.4 seconds), the “Rota Rod walking time prior to failure” value was 115.6 ± 10.9 s. Further, the “number of CD31+ capillaries in ischemic limb muscle” value with ischemic hind-limb (tissue harvested at day 28, saline 893/mm2) is 949±48 /mm2. Also, the “fraction of apoptotic cells (Annexin V-PE positive)” value with HUVECs [2] is 23.4%±1.1%. In the test with HUVECs [3], the “reduction in scratch wound size (denuded area)” value was 52.5%±4.1%. Further, the “proliferation (cell number relative to unsupplemented growth media)” value with HUVECs [4] is given as 98.4%±0.7%. For the same molecule, in test [5], the “blood vessels relative to the initial value” is given as 139%±11%.

B1: mutant PA (CH3(CH2)14C(O)-VVAAKKKGKLTAQELVFLKVKGI-NH2) (peptide)
peptide: Palmitoyl-VVAAKKKGKLTAQELVFLKVKGI-NH2
SMILES: CCCCCCCCCCCCCCCC(=O)N[C@H](C(=O)N[C@H](C(=O)N[C@@H](C)C(=O)N[C@@H](C)C(=O)N[C@@H](CCCCN)C(=O)N[C@@H](CCCCN)C(=O)N[C@@H](CCCCN)C(=O)NCC(=O)N[C@@H](CCCCN)C(=O)N[C@@H](CC(C)C)C(=O)N[C@H](C(=O)N[C@@H](C)C(=O)N[C@@H](CCC(N)=O)C(=O)N[C@@H](CCC(=O)O)C(=O)N[C@@H](CC(C)C)C(=O)N[C@H](C(=O)N[C@@H](Cc1ccccc1)C(=O)N[C@@H](CC(C)C)C(=O)N[C@@H](CCCCN)C(=O)N[C@H](C(=O)N[C@@H](CCCCN)C(=O)NCC(=O)N[C@H](C(N)=O)[C@@H](C)CC)C(C)C)C(C)C)[C@@H](C)O)C(C)C)C(C)C
B1: the “amount of phosphorylated VEGFR1 relative to untreated control (sandwich ELISA on HUVEC lysates, 1 uM, 2 min)” value with VEGF receptor 1 was 0.931 fold of untreated control.

For Ac-KLTWQELYQLKYKGI-NH2 [VEGF peptide (Ac-KLTWQELYQLKYKGI-NH2)], the “amount of phosphorylated VEGFR1 relative to untreated control (sandwich ELISA on HUVEC lysates, 1 uM, 2 min)” value in the test with VEGF receptor 1 was 1.33 fold of untreated control.

B2: VEGF-PA (CH3(CH2)14C(O)-VVAAKKKGKLTWQELYQLKYKGI-NH2) (peptide)
peptide: Palmitoyl-VVAAKKKGKLTWQELYQLKYKGI-NH2
SMILES: CCCCCCCCCCCCCCCC(=O)N[C@H](C(=O)N[C@H](C(=O)N[C@@H](C)C(=O)N[C@@H](C)C(=O)N[C@@H](CCCCN)C(=O)N[C@@H](CCCCN)C(=O)N[C@@H](CCCCN)C(=O)NCC(=O)N[C@@H](CCCCN)C(=O)N[C@@H](CC(C)C)C(=O)N[C@H](C(=O)N[C@@H](Cc1c[nH]c2ccccc12)C(=O)N[C@@H](CCC(N)=O)C(=O)N[C@@H](CCC(=O)O)C(=O)N[C@@H](CC(C)C)C(=O)N[C@@H](Cc1ccc(O)cc1)C(=O)N[C@@H](CCC(N)=O)C(=O)N[C@@H](CC(C)C)C(=O)N[C@@H](CCCCN)C(=O)N[C@@H](Cc1ccc(O)cc1)C(=O)N[C@@H](CCCCN)C(=O)NCC(=O)N[C@H](C(N)=O)[C@@H](C)CC)[C@@H](C)O)C(C)C)C(C)C
Consider B2, for which the “amount of phosphorylated VEGFR1 relative to untreated control (sandwich ELISA on HUVEC lysates, 1 uM, 2 min)” value with VEGF receptor 1 was 1.63 fold of untreated control.
